Laboratory results taken from ChEMBL document CHEMBL1201862, “PubChem BioAssay data set” (2004).
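Test compounds were applied to cells in 96-well plates for 48 hours at 5 doses. Here, GI50 denotes the concentration required for 50% inhibition of growth.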 Calls of active or inactive are those of the source. Cut-off read from the data, not from the text of the source: active = GI50 up to about 1.1 µM and inactive = higher.

How the values were obtained:
Assay in all cases: NCI tumour cell line growth inhibition, 48 h
[1] = system: A498
[2] = system: A549
[3] = system: ACHN
[4] = system: BT-549
[5] = system: CAKI-1
[6] = system: CCRF-CEM
[7] = system: COLO 205
[8] = system: DU-145
[9] = system: EKVX
[10] = system: HCC 2998
[11] = system: HOP-62
[12] = system: HOP-92
[13] = system: HT-29
[14] = system: Hs-578T
[15] = system: IGROV-1
[16] = system: K562
[17] = system: KM12
[18] = system: LOX IMVI
[19] = system: M14
[20] = system: MCF7
[21] = system: MDA-MB-231
[22] = system: MDA-MB-435
[23] = system: MDA-N
[24] = system: MOLT-4
[25] = system: Malme-3M
[26] = system: NCI-H226
[27] = system: NCI-H23
[28] = system: NCI-H460
[29] = system: NCI-H522
[30] = system: NCI/ADR-RES
[31] = system: OVCAR-3
[32] = system: OVCAR-5
[33] = system: OVCAR-8
[34] = system: PC-3
[35] = system: RPMI-8226
[36] = system: RXF 393
[37] = system: SF-268
[38] = system: SF-539
[39] = system: SK-MEL-28
[40] = system: SK-MEL-2
[41] = system: SK-MEL-5
[42] = system: SN12C
[43] = system: SNB-19
[44] = system: SNB-75
[45] = system: SW-620
[46] = system: T47D
[47] = system: TK-10
[48] = system: U-251
[49] = system: UACC-257
[50] = system: UO-31
[51] = system: 786-0
[52] = system: HCT-116
[53] = system: HCT-15
[54] = system: OVCAR-4
[55] = system: SK-OV-3
[56] = system: SR
[57] = system: UACC-62
[58] = system: HL-60
[59] = system: SF-295

C=CCn1c(=O)c(C)cn(COCCO)c1=O
GI50 [1]: > 10 µM (inactive) | GI50 [2]: > 100 µM (inactive) | GI50 [3]: > 100 µM (inactive) | GI50 [4]: > 100 µM (inactive) | GI50 [5]: > 100 µM (inactive) | GI50 [6]: > 100 µM (inactive) | GI50 [7]: > 100 µM (inactive) | GI50 [8]: > 100 µM (inactive) | GI50 [9]: > 100 µM (inactive) | GI50 [10]: > 100 µM (inactive) | GI50 [11]: > 100 µM (inactive) | GI50 [12]: > 100 µM (inactive) | GI50 [13]: > 100 µM (inactive) | GI50 [14]: > 100 µM (inactive) | GI50 [15]: > 100 µM (inactive) | GI50 [16]: > 100 µM (inactive) | GI50 [17]: > 100 µM (inactive) | GI50 [18]: > 100 µM (inactive) | GI50 [19]: > 100 µM (inactive) | GI50 [20]: > 100 µM (inactive) | GI50 [21]: > 100 µM (inactive) | GI50 [22]: > 100 µM (inactive) | GI50 [23]: > 100 µM (inactive) | GI50 [24]: > 100 µM (inactive) | GI50 [25]: > 100 µM (inactive) | GI50 [26]: > 100 µM (inactive) | GI50 [27]: > 100 µM (inactive) | GI50 [28]: > 100 µM (inactive) | GI50 [29]: > 100 µM (inactive) | GI50 [30]: > 100 µM (inactive) | GI50 [31]: > 100 µM (inactive) | GI50 [32]: > 100 µM (inactive) | GI50 [33]: > 100 µM (inactive) | GI50 [34]: > 100 µM (inactive) | GI50 [35]: > 100 µM (inactive) | GI50 [36]: > 100 µM (inactive) | GI50 [37]: > 100 µM (inactive) | GI50 [38]: > 100 µM (inactive) | GI50 [39]: > 100 µM (inactive) | GI50 [40]: > 100 µM (inactive) | GI50 [41]: > 100 µM (inactive) | GI50 [42]: > 100 µM (inactive) | GI50 [43]: > 100 µM (inactive) | GI50 [44]: > 100 µM (inactive) | GI50 [45]: > 100 µM (inactive) | GI50 [46]: > 100 µM (inactive) | GI50 [47]: > 100 µM (inactive) | GI50 [48]: > 100 µM (inactive) | GI50 [49]: > 100 µM (inactive) | GI50 [50]: > 100 µM (inactive)

CN(C)c1c(C2OC(CO)C(O)C2O)c(=O)c1=O (configuration not stated)
GI50 [51]: > 100 µM (inactive) | GI50 [1]: > 100 µM (inactive) | GI50 [2]: > 100 µM (inactive) | GI50 [3]: > 100 µM (inactive) | GI50 [4]: > 100 µM (inactive) | GI50 [5]: > 100 µM (inactive) | GI50 [6]: 82.2 µM (inactive) | GI50 [8]: > 100 µM (inactive) | GI50 [9]: > 100 µM (inactive) | GI50 [10]: > 100 µM (inactive) | GI50 [52]: > 100 µM (inactive) | GI50 [53]: > 100 µM | GI50 [11]: > 100 µM (inactive) | GI50 [12]: > 100 µM (inactive) | GI50 [13]: > 100 µM (inactive) | GI50 [14]: > 100 µM (inactive) | GI50 [15]: > 100 µM (inactive) | GI50 [16]: > 100 µM (inactive) | GI50 [17]: > 100 µM (inactive) | GI50 [18]: > 100 µM (inactive) | GI50 [19]: > 100 µM (inactive) | GI50 [21]: > 100 µM (inactive) | GI50 [22]: > 100 µM (inactive) | GI50 [23]: > 100 µM (inactive) | GI50 [24]: > 100 µM (inactive) | GI50 [25]: > 100 µM (inactive) | GI50 [26]: > 100 µM (inactive) | GI50 [27]: > 100 µM (inactive) | GI50 [28]: > 100 µM (inactive) | GI50 [29]: > 100 µM (inactive) | GI50 [30]: > 100 µM (inactive) | GI50 [31]: > 100 µM (inactive) | GI50 [54]: > 100 µM (inactive) | GI50 [32]: > 100 µM (inactive) | GI50 [33]: > 100 µM (inactive) | GI50 [34]: > 100 µM (inactive) | GI50 [35]: > 100 µM (inactive) | GI50 [36]: > 100 µM (inactive) | GI50 [37]: > 100 µM (inactive) | GI50 [38]: < 0.01 µM (active) | GI50 [39]: > 100 µM (inactive) | GI50 [40]: > 100 µM (inactive) | GI50 [55]: > 100 µM (inactive) | GI50 [42]: > 100 µM (inactive) | GI50 [43]: > 100 µM (inactive) | GI50 [44]: > 100 µM (inactive) | GI50 [56]: > 100 µM (inactive) | GI50 [45]: > 100 µM (inactive) | GI50 [46]: > 100 µM (inactive) | GI50 [47]: > 100 µM (inactive) | GI50 [48]: > 100 µM (inactive) | GI50 [49]: > 100 µM (inactive) | GI50 [57]: > 100 µM (inactive) | GI50 [50]: > 100 µM (inactive)

CC(C)C1CN1CC(O)Cn1ccnc1[N+](=O)[O-] (configuration not stated)
GI50 [51]: > 100 µM (inactive) | GI50 [1]: > 100 µM (inactive) | GI50 [2]: > 100 µM (inactive) | GI50 [3]: > 100 µM (inactive) | GI50 [4]: > 100 µM (inactive) | GI50 [5]: > 100 µM (inactive) | GI50 [6]: > 100 µM (inactive) | GI50 [7]: > 100 µM (inactive) | GI50 [8]: > 100 µM (inactive) | GI50 [9]: > 100 µM (inactive) | GI50 [10]: > 100 µM (inactive) | GI50 [52]: > 100 µM (inactive) | GI50 [53]: > 100 µM | GI50 [58]: > 10 µM (inactive) | GI50 [11]: > 100 µM (inactive) | GI50 [13]: > 100 µM (inactive) | GI50 [14]: > 100 µM (inactive) | GI50 [15]: > 100 µM (inactive) | GI50 [16]: > 100 µM (inactive) | GI50 [17]: > 100 µM (inactive) | GI50 [19]: > 100 µM (inactive) | GI50 [20]: > 100 µM (inactive) | GI50 [21]: > 100 µM (inactive) | GI50 [23]: > 100 µM (inactive) | GI50 [24]: > 100 µM (inactive) | GI50 [25]: 62.2 µM (inactive) | GI50 [26]: > 100 µM (inactive) | GI50 [27]: > 100 µM (inactive) | GI50 [28]: > 100 µM (inactive) | GI50 [29]: > 100 µM (inactive) | GI50 [30]: > 100 µM (inactive) | GI50 [31]: > 100 µM (inactive) | GI50 [54]: > 100 µM (inactive) | GI50 [32]: > 100 µM (inactive) | GI50 [33]: > 100 µM (inactive) | GI50 [34]: > 100 µM (inactive) | GI50 [37]: > 100 µM (inactive) | GI50 [59]: > 100 µM (inactive) | GI50 [38]: > 100 µM (inactive) | GI50 [39]: > 100 µM (inactive) | GI50 [40]: > 100 µM (inactive) | GI50 [41]: > 100 µM (inactive) | GI50 [55]: > 100 µM (inactive) | GI50 [42]: > 100 µM (inactive) | GI50 [43]: > 100 µM (inactive) | GI50 [44]: > 100 µM (inactive) | GI50 [45]: > 100 µM (inactive) | GI50 [46]: > 100 µM (inactive) | GI50 [47]: > 100 µM (inactive) | GI50 [48]: > 100 µM (inactive) | GI50 [49]: > 100 µM (inactive) | GI50 [57]: > 100 µM (inactive) | GI50 [50]: > 100 µM (inactive)
